Species: Rattus norvegicus
Test: Open TG-GATES - Regimen: Single
Format: toxicity, organism-based, Sprague-Dawley
Set-up: regimen Single, gender Male, age 6 weeks
Settings: in vivo, po, 0 mg/kg, route gavage, dose level Control; for APTT / Bas / Eos / Fbg / Hb / Ht / Lym / MCH / MCHC / MCV / Mono / Neu / PT / Plat / RBC / Ret / WBC: tissue Blood; for KIDNEY_L / KIDNEY_R / KIDNEY_TOTAL: tissue Kidney; for LIVER: tissue Liver; for ALP / ALT / AST / CRE / DBIL / GLC / IP / K / LDH / Na / PL / RALB / TBIL / TC / TP / gamma-GTP: tissue Plasma

SMILES: Clc1ccccc1CN1CCc2sccc2C1 [TICLOPIDINE]
- TERMINAL_BW (3 h): 208.4 g
- APTT (3 h): 18.6 s
- Bas (3 h): 0%
- Eos (3 h): 1%
- Fbg (3 h): 221.2 mg/dL
- Hb (3 h): 13.2 g/dL
- Ht (3 h): 37.6%
- Lym (3 h): 73.2%
- MCH (3 h): 21.1 pg
- MCHC (3 h): 35%
- MCV (3 h): 60.3 fL
- Mono (3 h): 3%
- Neu (3 h): 21.8%
- PT (3 h): 11.9 s
- Plat (3 h): 123.5 x10_4/uL
- RBC (3 h): 623.4 x10_4/ul
- Ret (3 h): 7.9%
- WBC (3 h): 82.6 x10_2/uL
- KIDNEY_L (3 h): 0.9 g
- KIDNEY_R (3 h): 0.9 g
- KIDNEY_TOTAL (3 h): 1.9 g
- LIVER (3 h): 9.5 g
- ALP (3 h): 806 IU/L
- ALT (3 h): 37.4 IU/L
- AST (3 h): 69.2 IU/L
- CRE (3 h): 0.4 mg/dL
- DBIL (3 h): 0.07 mg/dL
- GLC (3 h): 204.6 mg/dL
- IP (3 h): 9.8 mg/dL
- K (3 h): 3.9 meq/L
- LDH (3 h): 129.2 IU/L
- Na (3 h): 141.2 meq/L
- PL (3 h): 142.4 mg/dL
- RALB (3 h): 3.3 g/dL
- TBIL (3 h): 0.1 mg/dL
- TC (3 h): 79.2 mg/dL
- TP (3 h): 5.4 g/dL
- gamma-GTP (3 h): 1.2 IU/L
- TERMINAL_BW (6 h): 208.2 g
- APTT (6 h): 18.7 s
- Bas (6 h): 0.2%
- Eos (6 h): 1%
- Fbg (6 h): 214.6 mg/dL
- Hb (6 h): 13.4 g/dL
- Ht (6 h): 38.1%
- Lym (6 h): 73%
- MCH (6 h): 21.3 pg
- MCHC (6 h): 35.2%
- MCV (6 h): 60.3 fL
- Mono (6 h): 3%
- Neu (6 h): 21.4%
- PT (6 h): 12 s
- Plat (6 h): 123.6 x10_4/uL
- RBC (6 h): 632.8 x10_4/ul
- Ret (6 h): 7.7%
- WBC (6 h): 93.2 x10_2/uL
- KIDNEY_L (6 h): 1 g
- KIDNEY_R (6 h): 0.9 g
- KIDNEY_TOTAL (6 h): 1.9 g
- LIVER (6 h): 9.1 g
- ALP (6 h): 821 IU/L
- ALT (6 h): 32.4 IU/L
- AST (6 h): 68 IU/L
- CRE (6 h): 0.4 mg/dL
- DBIL (6 h): 0.074 mg/dL
- GLC (6 h): 183.2 mg/dL
- IP (6 h): 9.3 mg/dL
- K (6 h): 3.9 meq/L
- LDH (6 h): 170.8 IU/L
- Na (6 h): 141.4 meq/L
- PL (6 h): 126.8 mg/dL
- RALB (6 h): 3.2 g/dL
- TBIL (6 h): 0.1 mg/dL
- TC (6 h): 70.8 mg/dL
- TP (6 h): 5.3 g/dL
- gamma-GTP (6 h): 1 IU/L
- TERMINAL_BW (9 h): 205.8 g
- APTT (9 h): 17.9 s
- Bas (9 h): 0%
- Eos (9 h): 1%
- Fbg (9 h): 222 mg/dL
- Hb (9 h): 13.3 g/dL
- Ht (9 h): 37.5%
- Lym (9 h): 78.2%
- MCH (9 h): 21.5 pg
- MCHC (9 h): 35.6%
- MCV (9 h): 60.5 fL
- Mono (9 h): 2%
- Neu (9 h): 17.8%
- PT (9 h): 12.3 s
- Plat (9 h): 131.6 x10_4/uL
- RBC (9 h): 620 x10_4/ul
- Ret (9 h): 7.6%
- WBC (9 h): 87.2 x10_2/uL
- KIDNEY_L (9 h): 0.9 g
- KIDNEY_R (9 h): 0.9 g
- KIDNEY_TOTAL (9 h): 1.8 g
- LIVER (9 h): 7.9 g
- ALP (9 h): 871.4 IU/L
- ALT (9 h): 33.4 IU/L
- AST (9 h): 65.6 IU/L
- CRE (9 h): 0.4 mg/dL
- DBIL (9 h): 0.072 mg/dL
- GLC (9 h): 193.8 mg/dL
- IP (9 h): 10 mg/dL
- K (9 h): 3.7 meq/L
- LDH (9 h): 128.4 IU/L
- Na (9 h): 141.8 meq/L
- PL (9 h): 130.8 mg/dL
- RALB (9 h): 3.3 g/dL
- TBIL (9 h): 0.1 mg/dL
- TC (9 h): 74 mg/dL
- TP (9 h): 5.4 g/dL
- gamma-GTP (9 h): 1 IU/L
- TERMINAL_BW (24 h): 221.4 g
- APTT (24 h): 20.8 s
- Bas (24 h): 0.8%
- Eos (24 h): 0.8%
- Fbg (24 h): 228.6 mg/dL
- Hb (24 h): 13.7 g/dL
- Ht (24 h): 38.7%
- Lym (24 h): 75%
- MCH (24 h): 21.5 pg
- MCHC (24 h): 35.4%
- MCV (24 h): 60.7 fL
- Mono (24 h): 3.6%
- Neu (24 h): 19.2%
- PT (24 h): 11.9 s
- Plat (24 h): 130.5 x10_4/uL
- RBC (24 h): 638 x10_4/ul
- Ret (24 h): 6.5%
- WBC (24 h): 110.6 x10_2/uL
- KIDNEY_L (24 h): 1 g
- KIDNEY_R (24 h): 1 g
- KIDNEY_TOTAL (24 h): 1.9 g
- LIVER (24 h): 10.1 g
- ALP (24 h): 880.2 IU/L
- ALT (24 h): 43.8 IU/L
- AST (24 h): 73.6 IU/L
- CRE (24 h): 0.4 mg/dL
- DBIL (24 h): 0.074 mg/dL
- GLC (24 h): 198.2 mg/dL
- IP (24 h): 8.5 mg/dL
- K (24 h): 3.7 meq/L
- LDH (24 h): 142.2 IU/L
- Na (24 h): 141.8 meq/L
- PL (24 h): 134.2 mg/dL
- RALB (24 h): 3.4 g/dL
- TBIL (24 h): 0.1 mg/dL
- TC (24 h): 70 mg/dL
- TP (24 h): 5.5 g/dL
- gamma-GTP (24 h): 1 IU/L

Reference: ChEMBL document CHEMBL3885861, “Open TG-GATES”
